Test results from patent publication US10828301B2, “2,4-pyrimidinediamine compounds and their uses” (Rigel Pharmaceuticals, Inc, priority 2002, dated 2020).
Where a name gives a salt, the structure may show the parent alone.

Columns and labels:
[1] = test system: cultured human mast cells (CHMC); experiment: CHMC low cell density IgE activation: tryptase and LTC4 assays; format: cell-based; details: Homo sapiens, Mast cell, Low Density CHMC, anti-IgE activation, tryptase readout; read-out: CHMC anti-IgE Tryptase
How it was run: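 Cultured human mast cells at low density (1000-1500 per well) rested 1 h at 37° C, then stimulated with anti-IgE for 30 min at 37° C. Supernatant tryptase measured with fluorogenic substrate (30 min, room temperature); LTC4 quantified by ELISA on diluted supernatant.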

[2] = test system: cultured human mast cells (CHMC); experiment: CHMC low cell density ionomycin activation: tryptase assay; format: cell-based; details: Homo sapiens, Mast cell, Low Density CHMC, ionomycin activation, tryptase readout; read-out: CHMC Ionomycin Tryptase

Compound | IC50 [1] | IC50 [2]
COC(=O)c1cc2cc(Nc3ncc(F)c(Nc4ccc5oc(C(=O)OC)cc5c4)n3)ccc2o1 [Compound R926604, N2,N4-Bis(2-methoxycarbonylbenzofuran-5-yl)-5-fluoro-2,4-pyrimidinediamine] | 2850 nM | > 10000 nM
COC(=O)Cc1ccc(Nc2ncc(F)c(Nc3ccc(CC(=O)OC)cc3)n2)cc1 [Compound R926605, N2,N4-Bis[4-(methoxycarbonylmethyl)phenyl]-5-fluoro-2,4-pyrimidinediamine] | 2450 nM | > 10000 nM
CCOC(=O)c1cc2cc(Nc3ncc(F)c(Nc4cccc(O)c4)n3)ccc2[nH]1 [Compound R926615, N2-(2-Ethoxycarbonylindol-5-yl)-5-fluoro-N4-(3-hydroxyphenyl)-2,4-pyrimidinediamine] | 445 nM | > 10000 nM
CCOC(=O)c1cc2cc(Nc3ncc(F)c(Nc4ccc5[nH]c(C(=O)OCC)cc5c4)n3)ccc2[nH]1 [Compound R926616, N2,N4-Bis(2-ethoxycarbonylindol-5-yl)-5-fluoro-2,4-pyrimidinediamine] | 625 nM | 3250 nM
O=c1ccc2cc(Nc3ncc(F)c(Nc4ccc5oc(=O)ccc5c4)n3)ccc2o1 [Compound R926617, N2,N4-Bis(coumarin-6-yl)-5-fluoro-2,4-pyrimidinediamine] | 9450 nM | > 10000 nM
Cc1cc(Nc2ncc(F)c(Nc3cc(C)c(O)cc3C)n2)c(C)cc1O [Compound R926623, N2,N4-Bis(2,5-dimethyl-4-hydroxyphenyl)-5-fluoro-2,4-pyrimidinediamine] | > 10000 nM | > 10000 nM
CCOC(=O)Cc1ccc(Nc2ncc(C#N)c(Nc3ccc(CC(=O)OCC)cc3)n2)cc1 [Compound R926662, N2,N4-Bis[4-(ethoxycarbonylmethyl)phenyl]-5-cyano-2,4-pyrimidinediamine] | > 10000 nM | > 10000 nM
CCOC(=O)Cc1ccc(Nc2ncc(C(F)(F)F)c(Nc3ccc(CC(=O)OCC)cc3)n2)cc1 [Compound R926663, N2,N4-Bis[4-(ethoxycarbonylmethyl)phenyl]-5-trifluoromethyl-2,4-pyrimidinediamine] | > 10000 nM | > 10000 nM
Oc1ccc(Nc2ncc(F)c(Nc3ccc(O)c(Cl)c3)n2)cc1Cl [Compound R926675, N2,N4-Bis(3-chloro-4-hydroxyphenyl)-5-fluoro-2,4-pyrimidinediamine] | 630 nM | > 10000 nM
Oc1ccc(Nc2ncc(F)c(Nc3ccc(O)c(F)c3)n2)cc1F [Compound R926681, N2,N4-Bis(3-fluoro-4-hydroxyphenyl)-5-fluoro-2,4-pyrimidinediamine] | 775 nM | > 10000 nM
CC(=O)Nc1cccc(Nc2ncc(F)c(Nc3cccc(NC(C)=O)c3)n2)c1 [Compound R926682, N2,N4-Bis(3-acetamidophenyl)-5-fluoro-2,4-pyrimidinediamine] | 8410 nM | > 10000 nM
Oc1ccc(Nc2ncc(F)c(Nc3ccc(O)cc3F)n2)c(F)c1 [Compound R926683, N2,N4-Bis(2-fluoro-4-hydroxyphenyl)-5-fluoro-2,4-pyrimidinediamine] | 10000 nM | > 10000 nM
COc1cc(Nc2ncc(F)c(Nc3cc(OC)c(OC)c(OC)c3)n2)cc(OC)c1OC [Compound R926688, N2,N4-Bis(3,4,5-trimethoxyphenyl)-5-fluoro-2,4-pyrimidinediamine] | 2250 nM | > 10000 nM
COC(=O)c1cc2cc(Nc3ncc(F)c(Nc4ccc5c(c4)OCCO5)n3)ccc2o1 [Compound R926690, N4-(3,4-Ethylenedioxyphenyl)-5-fluoro-N2-[2-(methoxycarbonyl)benzofuran-5-yl]-2,4-pyrimidinediamine] | 146 nM | > 10000 nM
CC(C)Oc1ccc(Nc2ncc(F)c(Nc3ccc(OC(C)C)cc3)n2)cc1 [Compound R926701, N2,N4-Bis(4-isopropoxyphenyl)-5-fluoro-2,4-pyrimidinediamine] | 2200 nM | > 10000 nM
CC(C)(CO)NC(=O)c1cc2cc(Nc3ncc(F)c(Nc4cccc(O)c4)n3)ccc2o1 [Compound R926715, 5-Fluoro-N2-[2-(2-hydroxy-1,1-dimethylethylamino)carbonylbenzofuran-5-yl]-N4-(3-hydroxyphenyl)-2,4-pyrimidinediamine] | 588 nM | > 10000 nM
O=S(=O)(c1ccc(Nc2ncc(F)c(Nc3ccc4c(c3)OCCO4)n2)cc1)N1CCCC1 [Compound R926716, N4-(3,4-Ethylenedioxyphenyl)-5-fluoro-N2-[4-(tetrahydro-(1H)-pyrrol-1-ylsulfonyl)phenyl]-2,4-pyrimidinediamine] | 1060 nM | > 10000 nM
Fc1cnc(NCCCN2CCN(Cc3c(F)cccc3Cl)CC2)nc1Nc1ccc2c(c1)OCCO2 [Compound R926717, N2-[3-[4-(2-Chloro-6-fluorobenzyl)piperazino]propyl]-N4-(3,4-ethylenedioxyphenyl)-5-fluoro-2,4-pyrimidinediamine] | 7870 nM | > 10000 nM

Compound | IC50 [1] | IC50 [2]
CC(C)(C)c1ccc(Nc2nc(Nc3ccc4c(c3)CC(C(=O)O)O4)ncc2F)cc1 (stereo not shown) [Compound R926720, N4-(4-tert-Butylphenyl)-5-fluoro-N2-[2,3-dihydro-2-(carboxy)benzofuran-5-yl]-2,4-pyrimidinediamine] | 1560 nM | > 10000 nM
Fc1cnc(Nc2ccc3c(c2)OCCO3)nc1NCc1csc2ccc(Cl)cc12 [Compound R926721, N4-[(5-Chloro-1-benzothiophen-3-yl)methyl]-N2-(3,4-ethylenedioxyphenyl)-5-fluoro-2,4-pyrimidinediamine] | 4440 nM | > 10000 nM
Oc1cccc(Nc2ncc(F)c(NCc3csc4ccc(Cl)cc34)n2)c1 [Compound R926722, N4-[(5-Chloro-1-benzothiophen-3-yl)methyl]-5-fluoro-N2-(3-hydroxyphenyl)-2,4-pyrimidinediamine] | 5960 nM | > 10000 nM
Oc1cccc(Nc2ncc(F)c(NCCSCc3c(F)cccc3Cl)n2)c1 [Compound R926724, N4-[2-[(2-Chloro-6-fluorobenzyl)thio]ethyl]-5-fluoro-N2-(3-hydroxyphenyl)-2,4-pyrimidinediamine] | 2060 nM | > 10000 nM
Fc1cnc(Nc2ccc3[nH]ccc3c2)nc1Nc1ccc2c(c1)OCCO2 [Compound R926748, N4-(3,4-Ethylenedioxyphenyl)-5-fluoro-N2-[(1H)-indol-5-yl]-2,4-pyrimidinediamine] | 345 nM | > 10000 nM
Oc1cccc(Nc2nc(Nc3ccc4[nH]ccc4c3)ncc2F)c1 [Compound R926749, 5-Fluoro-N4-(3-hydroxyphenyl)-N2-[(1H)-indol-5-yl]-2,4-pyrimidinediamine] | 472 nM | > 10000 nM
Fc1cnc(Nc2ccc3cc[nH]c3c2)nc1Nc1ccc2c(c1)OCCO2 [Compound R926750, N4-(3,4-Ethylenedioxyphenyl)-5-fluoro-N2-[(1H)-indol-6-yl]-2,4-pyrimidinediamine] | 361 nM | > 10000 nM
Oc1cccc(Nc2nc(Nc3ccc4cc[nH]c4c3)ncc2F)c1 [Compound R926751, 5-Fluoro-N4-(3-hydroxyphenyl)-N2-[(1H)-indol-6-yl]-2,4-pyrimidinediamine] | 598 nM | > 10000 nM
OB(O)c1cccc(Nc2nc(Nc3cccc(O)c3)ncc2F)c1 [Compound R926755, 5-Fluoro-N4-(3-dihydroxyborylphenyl)-N2-(3-hydroxyphenyl)-2,4-pyrimidinediamine] | 1690 nM | > 10000 nM
OBc1cccc(Nc2nc(Nc3ccc4c(c3)OCCO4)ncc2F)c1 [Compound R926756, N2-(3,4-Ethylenedioxyphenyl)-5-fluoro-N4-(3-hydroxyborylphenyl)-2,4-pyrimidinediamine] | 1360 nM | > 10000 nM
COc1cc(Nc2ncc(F)c(Nc3cccc(O)c3)n2)cc(OC)c1OC [Compound R926761, 5-Fluoro-N4-(3-hydroxyphenyl)-N2-(3,4,5-trimethoxyphenyl)-2,4-pyrimidinediamine] | 245 nM | > 10000 nM
COc1cc(Nc2ncc(F)c(Nc3ccc4c(c3)OCCO4)n2)cc(OC)c1OC [Compound R926762, N4-(3,4-Ethylenedioxyphenyl)-5-fluoro-N2-(3,4,5-trimethoxyphenyl)-2,4-pyrimidinediamine] | 386 nM | > 10000 nM
Oc1c(Cl)cc(Nc2ncc(F)c(Nc3ccc4c(c3)OCCO4)n2)cc1Cl [Compound R926763, N4-(3,4-Ethylenedioxyphenyl)-5-fluoro-N2-(3,5-dichloro-4-hydroxyphenyl)-2,4-pyrimidinediamine] | 195 nM | > 10000 nM
CN(C)CCOc1cccc(Nc2ncc(F)c(Nc3ccc4c(c3)OCCO4)n2)c1 [Compound R926771, N2-[3-[2-(N, N-Dimethylamino)ethyloxy]phenyl]-N4-(3,4-Ethylenedioxyphenyl)-5-fluoro-2,4-pyrimidinediamine Hydrogen Chloride Salt] | 2050 nM | > 10000 nM
Oc1cccc(Nc2nc(Nc3ccc(-n4cnc(Cl)c4Cl)cc3)ncc2F)c1 [Compound R926777, N2-[4-(4,5-Dichloro-1H-imidazol-1-yl)phenyl]-5-fluoro-N4-(3-hydroxyphenyl)-2,4-pyrimidinediamine] | 378 nM | > 10000 nM
CC(C)c1ccc(Nc2ncc(F)c(Nc3cccc(O)c3)n2)cc1 [Compound R926778, 5-Fluoro-N4-(3-hydroxyphenyl)-N2-(4-isopropylphenyl)-2,4-pyrimidinediamine] | 414 nM | > 10000 nM
O=C(NCC(O)CO)c1cc2cc(Nc3ncc(F)c(Nc4ccc5c(c4)OCCO5)n3)ccc2o1 (stereo not shown) [Compound R926783, N2-[2-(N-2,3-Dihydroxypropylamino)carbonylbenzofuran-5-yl]-N4-(3,4-ethylenedioxyphenyl)-5-fluoro-2,4-pyrimidinediamine] | 304 nM | > 10000 nM
